One test addresses KRAS G12C (Homo sapiens, UniProt P01116, G12C). The test is described as follows: KRAS G12C GDP-GTP exchange assay (bodipy-GDP for GppNHp, with SOS1). Details: G12C_exchange (KRAS_G12C exchange assay IC50): scale not given here. The settings on record: 2.5 nM bodipy-loaded KRAS G12C, 2 hours pre-incubation with inhibitor, 2 hours after GppNHp-SOS1; for IC50: read-out: G12C_exchange (KRAS_G12C exchange assay IC50). In kind it is biochemical. On the procedure: The inhibitor potency of the exemplified compounds was determined in a fluorescence based guanine nucleotide exchange assay, which measures the exchange of bodipy-GDP (fluorescently labeled GDP) for GppNHp (Non-hydrolyzable GTP analog) to generate the active state of KRAS in the presence of SOS1 (guanine nucleotide exchange factor). Inhibitors were serially diluted in DMSO and a volume of 0.1 μL was transferred to the wells of a black low volume 384-well plate. 5 μL/well volume of bodipy-loaded KRAS G12C diluted to 5 nM in assay buffer (25 mM Hepes pH 7.5, 50 mM NaCl, 10 mM MgCl2 and 0.01% Brij-35) was added to the plate and pre-incubated with inhibitor for 2 hours at ambient temperature. Appropriate controls (enzyme with no inhibitor or with a G12C inhibitor (AMG-510)) were included on the plate. The exchange was initiated by the addition of a 5 μL/well volume containing 1 mM GppNHp and 300 nM SOS1 in assay buffer. The 10 μL/well reaction concentration of the bodipy-loaded KRAS G12C, GppNHp, and SOS1 were 2.5 nM, 500 uM, and 150 nM, respectively. The reaction plates were incubated at ambient temperature for 2 hours, a time estimated for complete GDP-GTP exchange in the absence of inhibitor. For the KRAS G12D and G12V mutants, similar guanine nucleotide exchange assays were used with 2.5 nM as final concentration for the bodipy loaded KRAS proteins and with 4 hours and 3 hours incubation after adding GppNHp-SOS1 mixture for G12D and G12V respectively. A cyclic peptide described to selectively bind G12D mutant (Sakamoto et al., BBRC 484.3 (2017), 605-611) or internal compounds with confirmed binding were used as positive controls in the assay plates. Fluorescence intensities were measured on a PheraStar plate reader instrument (BMG Labtech) with excitation at 485 nm and emission at 520 nm.
Either GraphPad prism or XLfit was used to analyze the data. The IC50 values were derived by fitting the data to a four parameter logistic equation producing a sigmoidal dose-response curve with a variable Hill coefficient. Prism equation: Y=Bottom+(Top−Bottom)/(1+10^((Log IC50−X)*Hill slope)); XLfit equation: Y=(A+((B−A)/(1+((X/C)^D)))) where X is the logarithm of inhibitor concentration and Y is the response.

The test system of test [1] is MIA PaCa-2 (KRAS G12C) cells. Description: KRAS_G12C cellular pERK HTRF assay. Type of test: cell-based, human. The following applies: phospho-ERK1/2 HTRF, 4 hours incubation, read-out: G12C_pERK (KRAS_G12C pERK assay IC50). How it is done:
MIA PaCa-2 (KRAS G12C; ATCC® CRL-1420), A427 (KRAS G12D; ATCC® HTB53), HPAF-II (KRAS G12D; ATCC® CRL-1997) and NCI-H838 (KRAS WT; ATCC® CRL-5844) cells are purchased from ATCC and maintained in RPMI 1640 media supplemented with 10% FBS (Gibco/Life Technologies). The cells are plated at 5000 cells per well (8 uL) into Greiner 384-well low volume, flat-bottom, tissue culture treated white plates and incubated overnight at 37° C., 5% CO2. The next morning, test compound stock solutions are diluted in media at 3× the final concentration, and 4 uL are added to the cells. The plate is mixed by gentle rotation for 30 seconds (250 rpm) at room temperature. The cells are incubated with the KRAS G12C and G12D compounds for 4 hours or 2 hours respectively at 37° C., 5% CO2.
4 uL of 4× lysis buffer with blocking reagent (1:25) (Cisbio) are added to each well and plates are rotated gently (300 rpm) for 30 minutes at room temperature. 4 uL per well of Cisbio anti Phospho-ERK 1/2 d2 is mixed with anti Phospho-ERK 1/2 Cryptate (1:1) are added to each well, mixed by rotation and incubated overnight in the dark at room temperature. Plates are read on the Pherastar plate reader at 665 nm and 620 nm wavelengths. IC50 determination is performed by fitting the curve of inhibitor percent inhibition versus the log of the inhibitor concentration using the GraphPad Prism 7 software.
On the technique in general: In TR-FRET formats the signal depends on donor and acceptor labels being close together.

By IC50 is commonly meant the midpoint of a concentration-inhibition curve.

Like-named read-outs stand apart in the source and are kept apart here.

KRAS G12C, sequence (P01116 1-188 isoform P01116-2 G12C): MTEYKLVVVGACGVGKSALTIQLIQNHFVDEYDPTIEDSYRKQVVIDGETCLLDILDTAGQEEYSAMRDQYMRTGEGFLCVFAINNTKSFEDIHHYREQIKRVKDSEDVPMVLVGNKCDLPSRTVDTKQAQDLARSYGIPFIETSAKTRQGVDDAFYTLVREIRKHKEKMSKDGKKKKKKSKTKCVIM

On to `C=CC(=O)N1CC[C@H](n2ncc3c(N4CC(N(C)C)C4)nc4c(F)c(-c5c(C)c(Cl)cc6[nH]ncc56)c(Cl)cc4c32)C[C@H]1CC#N` (single isomer, unassigned) [Example 3a], for which the 50% inhibitory concentration (IC50) at KRAS G12C was at most 100 nM; in test [1] (Homo sapiens, MIA PaCa-2), at most 100 nM.

Take `C=CC(=O)N1CC[C@H](n2ncc3c(N4CC(N(C)C)C4)nc4c(F)c(-c5c(C)c(Cl)cc6[nH]ncc56)c(Cl)cc4c32)C[C@H]1CC#N` (single isomer, unassigned) [Example 3b]: the IC50 (on KRAS G12C; in test [1]) was at most 100 nM in each case.

For `Cc1c(Cl)cc2[nH]ncc2c1-c1c(Cl)cc2c(nc(N3CC(N(C)C)C3)c3cnn([C@H]4CCN(C(=O)/C=C/CN(C)C)[C@H](CC#N)C4)c32)c1F` (single isomer, unassigned) [Example 4a], the IC50 is at most 100 nM at KRAS G12C and at most 100 nM in test [1] (Homo sapiens, MIA PaCa-2).

On to `Cc1c(Cl)cc2[nH]ncc2c1-c1c(Cl)cc2c(nc(N3CC(N(C)C)C3)c3cnn([C@H]4CCN(C(=O)/C=C/CN(C)C)[C@H](CC#N)C4)c32)c1F` (single isomer, unassigned) [Example 4b], for which, at KRAS G12C, the “G12C_exchange (KRAS_G12C exchange assay IC50)” value (shortened to “G12C_exchange”) was “††”.

Turning to `COC/C=C/C(=O)N1CC[C@H](n2ncc3c(N4CC(N(C)C)C4)nc4c(F)c(-c5c(C)c(Cl)cc6[nH]ncc56)c(Cl)cc4c32)C[C@H]1CC#N` (single isomer, unassigned) [Example 5a], the IC50 on KRAS G12C is at most 100 nM; in test [1] (Homo sapiens, MIA PaCa-2) it was at most 100 nM.

With `COC/C=C/C(=O)N1CC[C@H](n2ncc3c(N4CC(N(C)C)C4)nc4c(F)c(-c5c(C)c(Cl)cc6[nH]ncc56)c(Cl)cc4c32)C[C@H]1CC#N` (single isomer, unassigned) [Example 5b], on KRAS G12C, the “G12C_exchange” value is given as “††”.

As for `Cc1c(Cl)cc2[nH]ncc2c1-c1c(Cl)cc2c(nc(N3CC(N(C)C)C3)c3cnn([C@H]4CCN(C(=O)/C=C/CF)[C@H](CC#N)C4)c32)c1F` (single isomer, unassigned) [Example 6a], the IC50 on KRAS G12C is at most 100 nM; in test [1] (Homo sapiens, MIA PaCa-2), at most 100 nM.

For `Cc1c(Cl)cc2[nH]ncc2c1-c1c(Cl)cc2c(nc(N3CC(N(C)C)C3)c3cnn([C@H]4CCN(C(=O)/C=C/CF)[C@H](CC#N)C4)c32)c1F` (single isomer, unassigned) [Example 6b], at KRAS G12C, the “G12C_exchange” value is listed as “††”.

As to `Cc1c(Cl)cc2[nH]ncc2c1-c1c(Cl)cc2c(nc(N3CC(N(C)C)C3)c3cnn([C@H]4CCN(C(=O)/C=C/C(F)F)[C@H](CC#N)C4)c32)c1F` (single isomer, unassigned) [Example 7a], the IC50 is at most 100 nM on KRAS G12C and at most 100 nM in test [1] (Homo sapiens, MIA PaCa-2).

Take `Cc1c(Cl)cc2[nH]ncc2c1-c1c(Cl)cc2c(nc(N3CC(N(C)C)C3)c3cnn([C@H]4CCN(C(=O)/C=C/C(F)F)[C@H](CC#N)C4)c32)c1F` (single isomer, unassigned) [Example 7b]: the “G12C_exchange” value on KRAS G12C was “††”.

Consider `C=C(F)C(=O)N1CC[C@H](n2ncc3c(N4CC(N(C)C)C4)nc4c(F)c(-c5c(C)c(Cl)cc6[nH]ncc56)c(Cl)cc4c32)C[C@H]1CC#N` (single isomer, unassigned) [Example 8a], for which the IC50 at KRAS G12C is at most 100 nM; in test [1] (Homo sapiens, MIA PaCa-2), at most 100 nM.

On to `C=C(F)C(=O)N1CC[C@H](n2ncc3c(N4CC(N(C)C)C4)nc4c(F)c(-c5c(C)c(Cl)cc6[nH]ncc56)c(Cl)cc4c32)C[C@H]1CC#N` (single isomer, unassigned) [Example 8b], for which the “G12C_exchange” value on KRAS G12C was “††”.

Take `CC#CC(=O)N1CC[C@H](n2ncc3c(N4CC(N(C)C)C4)nc4c(F)c(-c5c(C)c(Cl)cc6[nH]ncc56)c(Cl)cc4c32)C[C@H]1CC#N` (single isomer, unassigned) [Example 9a]: the IC50 on KRAS G12C was at most 100 nM; in test [1] (Homo sapiens, MIA PaCa-2) it was at most 100 nM.

`CC#CC(=O)N1CC[C@H](n2ncc3c(N4CC(N(C)C)C4)nc4c(F)c(-c5c(C)c(Cl)cc6[nH]ncc56)c(Cl)cc4c32)C[C@H]1CC#N` (single isomer, unassigned) [Example 9b]: at KRAS G12C, the “G12C_exchange” value is “††”.

With `Cc1c(Cl)cc2[nH]ncc2c1-c1c(Cl)cc2c(nc(N3CC(C)(N(C)C)C3)c3cnn([C@H]4CCN(C(=O)/C=C/CN(C)C)[C@H](CC#N)C4)c32)c1F` (single isomer, unassigned) [Example 10a], the IC50 was at most 100 nM at KRAS G12C and at most 100 nM in test [1] (Homo sapiens, MIA PaCa-2).

As to `Cc1c(Cl)cc2[nH]ncc2c1-c1c(Cl)cc2c(nc(N3CC(C)(N(C)C)C3)c3cnn([C@H]4CCN(C(=O)/C=C/CN(C)C)[C@H](CC#N)C4)c32)c1F` (single isomer, unassigned) [Example 10b], the “G12C_exchange” value on KRAS G12C was “††”.

With `CC#CC(=O)N1CC[C@H](n2ncc3c(N4CC(C)(N(C)C)C4)nc4c(F)c(-c5c(C)c(Cl)cc6[nH]ncc56)c(Cl)cc4c32)C[C@H]1CC#N` (single isomer, unassigned) [Example 11b], on KRAS G12C, the “G12C_exchange” value is recorded as “††”.

Turning to `COC/C=C/C(=O)N1CC[C@H](n2ncc3c(N4CC(C)(N(C)C)C4)nc4c(F)c(-c5c(C)c(Cl)cc6[nH]ncc56)c(Cl)cc4c32)C[C@H]1CC#N` (single isomer, unassigned) [Example 12b], at KRAS G12C, the “G12C_exchange” value was “††”.

In the case of `Cc1c(Cl)cc2[nH]ncc2c1-c1c(Cl)cc2c(nc(N3CC(C)(N(C)C)C3)c3cnn([C@H]4CCN(C(=O)/C=C/CF)[C@H](CC#N)C4)c32)c1F` (single isomer, unassigned) [Example 13b], on KRAS G12C, the “G12C_exchange” value is listed as “††”.

With `Cc1c(Cl)cc2[nH]ncc2c1-c1c(Cl)cc2c(nc(N3CC(C)(N(C)C)C3)c3cnn([C@H]4CCN(C(=O)/C=C/C(F)F)[C@H](CC#N)C4)c32)c1F` (single isomer, unassigned) [Example 14b], the “G12C_exchange” value on KRAS G12C was “††”.

On to `C=C(F)C(=O)N1CC[C@H](n2ncc3c(N4CC(C)(N(C)C)C4)nc4c(F)c(-c5c(C)c(Cl)cc6[nH]ncc56)c(Cl)cc4c32)C[C@H]1CC#N` (single isomer, unassigned) [Example 15b], for which, on KRAS G12C, the “G12C_exchange” value is given as “††”.

With `C=CC(=O)N1CC[C@H](n2ncc3c(N4CC(C)(N(C)C)C4)nc4c(F)c(-c5c(C)c(Cl)cc6[nH]ncc56)c(Cl)cc4c32)C[C@H]1CC#N` (single isomer, unassigned) [Example 16b], on KRAS G12C, the “G12C_exchange” value is on record as “††”.

Consider `CC#CC(=O)N1CC[C@H](n2ncc3c(OC[C@@H]4CCCN4C)nc4c(F)c(-c5c(C)c(Cl)cc6[nH]ncc56)c(Cl)cc4c32)C[C@H]1CC#N` (single isomer, unassigned) [Example 18b], for which the “G12C_exchange” value at KRAS G12C was “††”.

As to `COC/C=C/C(=O)N1CC[C@H](n2ncc3c(OC[C@@H]4CCCN4C)nc4c(F)c(-c5c(C)c(Cl)cc6[nH]ncc56)c(Cl)cc4c32)C[C@H]1CC#N` (single isomer, unassigned) [Example 19b], the “G12C_exchange” value at KRAS G12C is listed as “††”.

With `C=CC(=O)N1CC[C@H](n2ncc3c(OC[C@@H]4CCCN4C)nc4c(F)c(-c5c(C)c(Cl)cc6[nH]ncc56)c(Cl)cc4c32)C[C@H]1CC#N` (single isomer, unassigned) [Example 20b], the IC50 on KRAS G12C was at most 100 nM.
